Reference: patent publication US9796700B2 (Celgene CAR LLC, priority 2013, dated 2017)

Biological target: Erk1 (Homo sapiens (Human), UniProt P27361)
Assay: Protein Mass Modification Assay (intact protein MALDI)
Type: binding
Protocol: Protein Mass Modification Assay
Intact protein: Erk1 from Millipore (Cat. No. 14-439) was incubated for 60 min. at room temperature with a 10-fold excess of test compound to protein. 4 μL aliquots of the resulting mixture were diluted with 15 μL of 0.2% TFA prior to micro C4 ZipTipping directly onto the MALDI target using sinapinic acid as the desorption matrix (10 mg/ml in 0.1% TFA:Acetonitrile 50:50, v/v). The centroid mass of the target protein in the control sample was compared with the centroid mass of the target protein incubated with compound. A shift in the centroid mass of the treated protein compared to the untreated protein was divided by the molecular weight of the compound. This number corresponds to the percentage of modified protein after one hour incubation. Results from this assay are reported in Table A under the column “ERK1 Mass Mod (%).”

Erk1, sequence (P27361 whole entry, looked up): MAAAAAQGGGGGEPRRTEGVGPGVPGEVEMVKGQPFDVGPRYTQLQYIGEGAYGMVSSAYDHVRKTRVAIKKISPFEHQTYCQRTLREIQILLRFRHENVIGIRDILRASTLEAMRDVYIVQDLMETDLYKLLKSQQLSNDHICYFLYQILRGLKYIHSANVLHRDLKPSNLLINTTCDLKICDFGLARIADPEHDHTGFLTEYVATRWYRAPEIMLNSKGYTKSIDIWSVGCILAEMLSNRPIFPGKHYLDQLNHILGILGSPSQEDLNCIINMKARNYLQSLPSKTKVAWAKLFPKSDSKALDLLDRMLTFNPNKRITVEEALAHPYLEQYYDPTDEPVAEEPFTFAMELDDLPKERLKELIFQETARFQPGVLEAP

ERK1 Mass Mod (%)	Compound
E (provided a mass modification of ≧70%)	C=CC(=O)Nc1ccccc1Nc1nc(N[C@@H]2CCC[C@H](C(=O)NOC)C2)ncc1C(F)(F)F (racemic) [Compound I-3, Rac-cis-3-((4-((2-acrylamidophenyl)amino)-5-(trifluoromethyl)pyrimidin-2-yl)amino)-N-methoxycyclohexanecarboxamide]
E (provided a mass modification of ≧70%)	C=CC(=O)Nc1cc(F)ccc1Nc1nc(N[C@@H]2CCC[C@H](C(N)=O)C2)ncc1C(F)(F)F (racemic) [Compound I-5, Rac-cis-3-((4-((2-acrylamido-4-fluorophenyl)amino)-5-(trifluoromethyl)pyrimidin-2-yl)amino)cyclohexanecarboxamide]
E (provided a mass modification of ≧70%)	C/C=C/C(=O)Nc1cc(F)ccc1Nc1nc(N[C@@H]2CCC[C@H](C(N)=O)C2)ncc1C(F)(F)F (racemic) [Compound I-6, Rac-(E)-3-((4-((2-(but-2-enamido)-4-fluorophenyl)amino)-5-(trifluoromethyl)pyrimidin-2-yl)amino)-cis-cyclohexanecarboxamide]
E (provided a mass modification of ≧70%)	C=CC(=O)Nc1ccccc1Nc1nc(N[C@@H]2CCC[C@H](C(=O)O)C2)ncc1C(F)(F)F (racemic) [Compound I-14, Rac-3-((4-((2-acrylamidophenyl)amino)-5-(trifluoromethyl)pyrimidin-2-yl)amino)-cis-cyclohexanecarboxylic acid]
G (proived a mass modification ≦30%)	CC(=O)N1CCC[C@H](Nc2ncc(C(F)(F)F)c(NC3C4C=CC(C4)C3C(=O)NC#N)n2)C1 (mixture of isomers) [Compound I-25, Rac-3-((2-(((S)-1-acetylpiperidin-3-yl)amino)-5-(trifluoromethyl)pyrimidin-4-yl)-cis-amino)-N-cyanobicyclo[2.2.1]hept-5-ene-2-carboxamide]
E (provided a mass modification of ≧70%)	C=CC(=O)Nc1ccccc1Nc1nc(N[C@@H]2CCC[C@H](C(=O)NOCCO)C2)ncc1Cl (racemic) [Compound I-103, Rac-3-((4-((2-acrylamidophenyl)amino)-5-chloropyrimidin-2-yl)amino)-N-(2-hydroxyethoxy)-cis-cyclohexanecarboxamide]
E (provided a mass modification of ≧70%)	C=CC(=O)Nc1cc(F)ccc1Nc1nc(N[C@@H]2CCC[C@H](C(N)=O)C2)ncc1Cl (racemic) [Compound I-112, Rac-cis-3-((4-((2-acrylamido-4-fluorophenyl)amino)-5-chloropyrimidin-2-yl)amino)cyclohexanecarboxamide]
E (provided a mass modification of ≧70%)	C=CC(=O)N[C@H]1CCCC[C@@H]1Nc1nc(N[C@H]2CCCN(C(=O)CO)C2)ncc1Cl (racemic) [Compound I-141, Rac-N-(2-((5-chloro-2-(((R)-1-(2-hydroxyacetyl)piperidin-3-yl)amino)pyrimidin-4-yl)amino)-trans-cyclohexyl)acrylamide]
E (provided a mass modification of ≧70%)	C=CC(=O)Nc1ccccc1Nc1nc(N[C@@H]2CCC[C@H](C(=O)NOC)C2)ncc1Cl (racemic) [Compound I-203, Rac-cis-3-((4-((2-acrylamidophenyl)amino)-5-chloropyrimidin-2-yl)amino)-N-methoxy-cyclohexanecarboxamide]
E (provided a mass modification of ≧70%)	C=CC(=O)N[C@@H]1CCCC[C@H]1Nc1nc(Nc2cc(C(N)=O)ccc2C)ncc1Cl (racemic) [Compound I-226, Rac-trans-3-((4-((2-acrylamidocyclohexyl)amino)-5-chloropyrimidin-2-yl)amino)-4-methylbenzamide]
G (proived a mass modification ≦30%)	C=CC(=O)N[C@@H]1CCCC[C@H]1Nc1nc(Nc2cc(C(=O)NOC)ccc2C)ncc1C(N)=O (racemic) [Compound I-256, Rac-trans-4-((2-acrylamidocyclohexyl)amino)-2-((5-(methoxycarbamoyl)-2-methylphenyl)amino)pyrimidine-5-carboxamide]
G (proived a mass modification ≦30%)	C=CC(=O)N[C@@H]1CCCC[C@H]1Nc1nc(Nc2cc(C(=O)NOCCO)ccc2C)ncc1C(N)=O (racemic) [Compound I-257, Rac-trans-4-((2-acrylamidocyclohexyl)amino)-2-((5-((2-hydroxyethoxy)carbamoyl)-2-methylphenyl)amino)pyrimidine-5-carboxamide]
G (proived a mass modification ≦30%)	C=CC(=O)N[C@@H]1CCCC[C@H]1Oc1nc(Nc2cc(C(N)=O)ccc2C)ncc1C(N)=O (racemic) [Compound I-268, Rac-trans-4-((2-acrylamidocyclohexyl)oxy)-2-((5-carbamoyl-2-methylphenyl)amino)pyrimidine-5-carboxamide]
G (proived a mass modification ≦30%)	C=CC(=O)N[C@@H]1CCCC[C@H]1Oc1nc(Nc2cc(C(=O)NOC)ccc2C)ncc1C(N)=O (racemic) [Compound I-269, Rac-trans-4-((2-acrylamidocyclohexyl)oxy)-2-((5-(methoxycarbamoyl)-2-methylphenyl)amino)pyrimidine-5-carboxamide]
G (proived a mass modification ≦30%)	C=CC(=O)N[C@@H]1CCCC[C@H]1Oc1nc(Nc2cc(C(N)=O)ccc2C)ncc1Cl (racemic) [Compound I-270, Rac-trans-3-((4-((2-acrylamidocyclohexyl)oxy)-5-chloropyrimidin-2-yl)amino)-4-methylbenzamide]
E (provided a mass modification of ≧70%)	C=CC(=O)Nc1ccccc1Nc1nc(NC2CCN(C=O)CC2)ncc1C(F)(F)F [Compound I-11, N-(2-((2-((1-formylpiperidin-4-yl)amino)-5-(trifluoromethyl)pyrimidin-4-yl)amino)phenyl)acrylamide]
E (provided a mass modification of ≧70%)	C=CC(=O)Nc1ccccc1Nc1nc(NC2CCN(C(C)=O)CC2)ncc1C(F)(F)F [Compound I-12, N-(2-((2-((1-acetylpiperidin-4-yl)amino)-5-(trifluoromethyl)pyrimidin-4-yl)amino)phenyl)acrylamide]

Compound	ERK1 Mass Mod (%)
C=CC(=O)Nc1ccccc1Nc1nc(N[C@@H]2CCC[C@H](C(=O)NOCCO)C2)ncc1C(F)(F)F (racemic) [Compound I-4, Rac-cis-3-((4-((2-acrylamidophenyl)amino)-5-(trifluoromethyl)pyrimidin-2-yl)amino)-N-(2-hydroxyethoxy)cyclohexanecarboxamide]	F (provided a mass modification of 31-69%)
C=CC(=O)N[C@H]1CCCC[C@@H]1Nc1nc(N[C@H]2CCCN(C(=O)CO)C2)ncc1C(F)(F)F (racemic) [Compound I-27, Rac-N-(2-((2-(((R)-1-(2-hydroxyacetyl)piperidin-3-yl)amino)-5-(trifluoromethyl)pyrimidin-4-yl)amino)-trans-cyclohexyl)acrylamide]	F (provided a mass modification of 31-69%)
C=CC(=O)N(C)c1ccccc1Nc1nc(N[C@@H]2CCC[C@H](C(N)=O)C2)ncc1Cl (racemic) [Compound I-105, Rac-cis-3-((5-chloro-4-((2-(N-methylacrylamido)phenyl)amino)pyrimidin-2-yl)amino)cyclohexanecarboxamide]	F (provided a mass modification of 31-69%)
C=CC(=O)N(C)c1ccccc1Nc1nc(N[C@@H]2CCC[C@H](C(=O)NOC)C2)ncc1Cl (racemic) [Compound I-106, Rac-cis-3-((5-chloro-4-((2-(N-methylacrylamido)phenyl)amino)pyrimidin-2-yl)amino)-N-methoxycyclohexanecarboxamide]	F (provided a mass modification of 31-69%)
C/C=C/C(=O)Nc1cc(F)ccc1Nc1nc(N[C@@H]2CCC[C@H](C(N)=O)C2)ncc1Cl (racemic) [Compound I-113, Rac-cis-(E)-3-((4-((2-(but-2-enamido)-4-fluorophenyl)amino)-5-chloropyrimidin-2-yl)amino)cyclohexanecarboxamide]	F (key: E: provided a mass modification of ≧70%; F: provided a mass modification of 31-69%; G: proived a mass modification ≦30%)
C=C(C)C(=O)Nc1cc(F)ccc1Nc1nc(N[C@@H]2CCC[C@H](C(N)=O)C2)ncc1Cl (racemic) [Compound I-114, Rac-cis-3-((5-chloro-4-((4-fluoro-2-methacrylamidophenyl)amino)pyrimidin-2-yl)amino)cyclohexanecarboxamide]	F (provided a mass modification of 31-69%)
C=CC(=O)Nc1ccccc1Nc1nc(N[C@H]2CCC[C@@H](CO)C2)ncc1Cl (racemic) [Compound I-121, Rac-cis-N-(2-((5-chloro-2-((3-(hydroxymethyl)cyclohexyl)amino)pyrimidin-4-yl)amino)phenyl)acrylamide]	E (key: E: provided a mass modification of ≧70%; F: provided a mass modification of 31-69%; G: proived a mass modification ≦30%)
C=CC(=O)N[C@@H]1CCCC[C@H]1Nc1nc(Nc2cc(C(=O)NOC)ccc2C)ncc1Cl (racemic) [Compound I-188, Rac-trans-3-((4-((2-acrylamidocyclohexyl)amino)-5-chloropyrimidin-2-yl)amino)-N-methoxy-4-methylbenzamide]	F (provided a mass modification of 31-69%)
C=CC(=O)N[C@@H]1CCCC[C@H]1Nc1nc(Nc2cc(C(N)=O)ccc2C)ncc1C(N)=O (racemic) [Compound I-255, Rac-trans-4-((2-acrylamidocyclohexyl)amino)-2-((5-carbamoyl-2-methylphenyl)amino)pyrimidine-5-carboxamide]	F (provided a mass modification of 31-69%)
